TGI and GI50 data for 12 compounds are collected here from PubChem BioAssay (NCI).

Some test systems named below: SW-620 colon; A549 NSCLC; OVCAR-5 ovarian; EKVX NSCLC; SNB-75 CNS; HOP-62 NSCLC; SK-MEL-28 melanoma; U251 CNS; MDA-MB-231 breast; SR leukemia.
Test in all cases: NCI-60 cell line screen, 48 h

SMILES strings stand for the structures. Where “and” joins values, the source holds several entries; their conditions need not be identical. Equal entries are not always repeated.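 Growth conditions: 96-well plates. Treatment: test compound, 48 hours, 5 concentrations. Analysis: linear interpolation between bracketing concentrations; unreached endpoints set to highest concentration. The concentration for 50% growth inhibition is given as GI50. TGI: concentration producing complete growth inhibition.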

In the case of `CC/C=C1\N=C(c2ccc(Cl)cc2)OC1=O`, the TGI in the assay with SW-620 colon, in the assay on A549 NSCLC, in the assay with OVCAR-5 ovarian, in the assay with EKVX NSCLC, in the assay on SNB-75 CNS and in the assay with HOP-62 NSCLC was > 100 µM in each case. Further, the TGI with SK-MEL-28 melanoma is > 100 µM.

For `COc1ccc(/C=C2\CCCCC2=O)cc1`, the TGI in the assay on SW-620 colon, with A549 NSCLC, in the assay with EKVX NSCLC, in the assay on SNB-75 CNS, with HOP-62 NSCLC and with U251 CNS was > 100 µM in each case. Also, the TGI in the assay with SK-MEL-28 melanoma is > 100 µM.

With `CCn1cc(/C=C/C(C)c2cn(CC)c(=O)[nH]c2=O)c(=O)[nH]c1=O` (configuration not stated), the TGI with SW-620 colon, with A549 NSCLC, in the assay on OVCAR-5 ovarian, with EKVX NSCLC, with SNB-75 CNS and in the assay with HOP-62 NSCLC was > 100 µM throughout. Besides, the TGI with U251 CNS and with SK-MEL-28 melanoma was > 100 µM throughout.

As to `COc1cc(/C=C/c2cc(/C=C/c3ccc(O)c(OC)c3)n(-c3c(C)cccc3C)c(=O)n2)ccc1O`, the GI50 is 1.18 µM in the assay with A549 NSCLC; 2.65 µM in the assay with OVCAR-5 ovarian; 1.86 µM with EKVX NSCLC; 1.08 µM in the assay on HOP-62 NSCLC; 0.635 µM in the assay with U251 CNS; 1.16 µM in the assay with SK-MEL-28 melanoma. Besides, in the assay with MDA-MB-231 breast, the GI50 was 1.76 µM. In addition, the TGI was 7.6 µM in the assay on A549 NSCLC; 9.59 µM with OVCAR-5 ovarian; 6.73 µM in the assay with EKVX NSCLC; 2.76 µM in the assay with HOP-62 NSCLC; 4.08 µM in the assay with U251 CNS; 5.1 µM in the assay with SK-MEL-28 melanoma. Also, in the assay with MDA-MB-231 breast, the TGI came out at 9.95 µM.

Consider `O=C(O)C1C(C(=O)Nc2ccc3c(c2)Cc2ccccc2-3)C2(Cl)C(Cl)=C(Cl)C1(Cl)C2(Cl)Cl` (configuration not stated), for which the TGI in the assay with SW-620 colon is 64.5 µM; in the assay with A549 NSCLC, > 100 µM; in the assay with OVCAR-5 ovarian, 38.6 µM; in the assay on EKVX NSCLC, 97.6 µM; with SNB-75 CNS, 91.8 µM; in the assay on HOP-62 NSCLC, > 100 µM. In addition, the values for the TGI in the assay with U251 CNS, in the assay with SK-MEL-28 melanoma and with MDA-MB-231 breast were 29.7 µM, 46.3 µM and 41.6 µM, respectively.

`CC(=O)c1ccc(NC(=O)CSc2nnc(-c3cc(-c4ccc(C)cc4)nc4ccccc34)o2)cc1`: the GI50 in the assay on SW-620 colon was 3.24 µM; with A549 NSCLC it was 3.01 µM; in the assay on OVCAR-5 ovarian, 6.01 µM; in the assay with EKVX NSCLC, 3.13 µM; in the assay with SNB-75 CNS it was 1.77 µM; in the assay with HOP-62 NSCLC, 2.08 µM. Also, the GI50 in the assay on U251 CNS is 1.97 µM; in the assay on SK-MEL-28 melanoma, > 100 µM; in the assay with MDA-MB-231 breast, 2.3 µM. Also, the TGI was > 100 µM in the assay with SW-620 colon; > 100 µM in the assay on A549 NSCLC; > 100 µM in the assay with OVCAR-5 ovarian; > 100 µM in the assay with EKVX NSCLC; 3.57 µM in the assay on SNB-75 CNS; 5.7 µM with HOP-62 NSCLC. Moreover, the TGI in the assay on U251 CNS was 3.92 µM; with SK-MEL-28 melanoma it was > 100 µM; with MDA-MB-231 breast, 5.47 µM.

Take `N#CC(C(=O)/C(=N\Nc1nc(=S)[nH]n1N)C(C#N)c1ccc(Cl)cc1)c1ccc(Cl)cc1` (configuration not stated): the TGI in the assay with SW-620 colon, with A549 NSCLC, with OVCAR-5 ovarian, in the assay on EKVX NSCLC, in the assay on SNB-75 CNS and in the assay with HOP-62 NSCLC was > 100 µM throughout. The TGI with U251 CNS and in the assay on SK-MEL-28 melanoma was > 100 µM in each case.

As for `CC[C@H]1CN2CCc3cc(OC)c(OC)cc3[C@@H]2C[C@@H]1C[C@H]1NCCc2cc(O)c(OC)cc21`, the TGI in the assay with SW-620 colon was 0.0585 µM and < 0.0212 µM and 0.19 µM; in the assay on A549 NSCLC it was 0.0652 µM and 0.0527 µM and 0.355 µM; in the assay with OVCAR-5 ovarian, 0.0751 µM and 0.503 µM; in the assay with EKVX NSCLC, 0.0779 µM and 0.0344 µM and 0.0322 µM; with SNB-75 CNS, 0.0735 µM and 0.147 µM and 0.0944 µM; in the assay on HOP-62 NSCLC, 0.0967 µM and 0.735 µM and 0.13 µM. Also, the TGI with SK-MEL-28 melanoma was 0.0678 µM and 0.0487 µM and 0.266 µM. Besides, the GI50 in the assay on SNB-75 CNS is 0.0155 µM and 0.025 µM; in the assay with HOP-62 NSCLC it was 0.0245 µM and 0.0294 µM; with MDA-MB-231 breast, 0.00901 µM.

Turning to `CC(=O)N1CC(Nc2ccc(OC(F)(F)F)cc2)=CC1=O`, the GI50 in the assay with SW-620 colon is 0.476 µM; in the assay on A549 NSCLC, 2.01 µM; with OVCAR-5 ovarian, > 100 µM; in the assay on SNB-75 CNS, 1.59 µM; with HOP-62 NSCLC it was 3.51 µM; in the assay with U251 CNS it was 3.34 µM. The GI50 with SR leukemia is 0.532 µM; in the assay on SK-MEL-28 melanoma, 7.29 µM. In addition, the TGI in the assay on SW-620 colon was > 100 µM; with A549 NSCLC, > 100 µM; in the assay on OVCAR-5 ovarian it was > 100 µM; with SNB-75 CNS it was 7.59 µM; in the assay with HOP-62 NSCLC, > 100 µM; in the assay with U251 CNS, > 100 µM. Further, the figures for the TGI with SR leukemia and in the assay with SK-MEL-28 melanoma were 52.2 µM and > 100 µM, respectively.

As for `COc1ccc(/C(=N/NC(=O)NN)C(c2ccc(OC)cc2)C2(O)CNc3c(Cl)cc(Cl)cc32)cc1` (configuration not stated), the TGI with SW-620 colon, in the assay on A549 NSCLC, in the assay with OVCAR-5 ovarian, in the assay with EKVX NSCLC, in the assay with SNB-75 CNS and in the assay with HOP-62 NSCLC was > 100 µM throughout. Besides, the TGI with U251 CNS and in the assay on SK-MEL-28 melanoma was > 100 µM each time.

With `COc1cc(C(=O)/C=C/c2cc(C(=O)c3cc(OC)c(OC)c(OC)c3)ccc2OC)ccc1N`, the GI50 was 0.374 µM in the assay with SW-620 colon; 3.2 µM in the assay with A549 NSCLC; 1.16 µM in the assay with SNB-75 CNS; 2.03 µM in the assay with HOP-62 NSCLC; 1.02 µM with U251 CNS; 1.36 µM in the assay with SK-MEL-28 melanoma. Moreover, the GI50 with MDA-MB-231 breast was 0.713 µM. Also, the TGI with SW-620 colon was > 100 µM; in the assay with A549 NSCLC, 29 µM; in the assay with SNB-75 CNS it was 4.35 µM; in the assay on HOP-62 NSCLC it was 8.31 µM; with U251 CNS, 2.22 µM; with SK-MEL-28 melanoma, 3.75 µM. Moreover, in the assay on MDA-MB-231 breast, the TGI was > 100 µM.

On to `CC(C)(C)NN=C1C(C)(C)C(=NNC(C)(C)C)C1(C)C`, for which the TGI in the assay on SW-620 colon, with A549 NSCLC, in the assay with OVCAR-5 ovarian, with SNB-75 CNS, in the assay with HOP-62 NSCLC and in the assay with U251 CNS was > 100 µM throughout. Moreover, the TGI in the assay on SR leukemia and in the assay on SK-MEL-28 melanoma was > 100 µM in each case.
